Literature values in patent publication US6183777A (priority 1997, dated 2001).

Key:
[1] = test system: Alzheimer's Disease patients; conditions: mild to medium AD
cerebral acetyl choline = conditions: in particular in the cerebral cortex
[2] = in vivo

**Q.** What does the source list for `Cl.Nc1c2c(nc3ccccc13)CCCC2` [Tacrine, 1,2,3,4-tetrahydro-9-acridinamine hydrochloride]?
**A.** oral bioavailability, variation between individuals: may significantly vary in different individuals; memory and recognition of patients [1]: can significantly improve the memory and recognition of patients; cerebral acetyl choline concentration (cerebral acetyl choline): may increase cerebral acetyl choline concentration; adverse effects [2]: gastro-intestinal side effects, such as nausea, vomiting, diarrhea, dyspepsia and loss of appetite; kinetic ataxia of voluntary muscles and myalgia; sweating and bradycardia induced by overexcitement of vagus nerues; hepatoxicity [2]: may cause reversible hepatoxicity
